Results as given in article PMC6930660, “Synthesis and Comparative Structure–Activity Study of Carbohydrate-Based Phenolic Compounds as α-Glucosidase Inhibitors and Antioxidants” (Molecules, 2019).
Several values for one entry are separate records, joined by “and”; a condition that tells them apart may be missing. Identical values can stand only once.

Key:
[1] = DPPH radical scavenging assay (antioxidant activity); details: for EC50: MES-NaOH buffer pH 6.0, 15 min in the dark; for Antioxidant Trolox-eq (TE): trolox-equivalent (mol-trolox/mol-sample) = slope of sample / slope of trolox
Method: The antioxidant activity was assessed by employing the 2,2-diphenyl-1-picrylhydrazyl (DPPH) radical scavenging assay, according to the previously published method. In total, 100 μL of each sample (1000–10 μg/mL in 50%EtOH/ H2O ) or trolox (160–0 μM in 50% EtOH/ H2O ), and 50 μL of 2-(N-morpholino)ethanesulfonic acid (MES)-NaOH buffer (200 mM, pH = 6.0), and 50 μL of an 800 μM DPPH diluted in 99.5% EtOH were mixed in 96-well plates. Following shaking the microplate for 15 min in the dark, the absorbance was recorded at 520 nm using a microplate reader (Bio-Rad, Model 680). Effective percentages (%) were calculated as follows: Effective percentages (%) = 1−As/Ab ×100 where As is the absorbance of the sample and Ab is the absorbance of the blank (without samples, 50% EtOH/ H2O solution was used instead).
The trolox-equivalent (sample-mol/trolox-mol) was calculated as follows: Trolox−equivalent (mol−trolox/mol−sample) = Ss/St where Ss is the slope of the sample and St is the slope of trolox.

rat α-glucosidase = assay: α-glucosidase inhibitory activity assay (FUJIFILM kit, maltose substrate, glucose measured by mutarotase-GOD method); format: biochemical; details: for IC50: rat α-glucosidase, 18.5 mM maltose, maleic anhydride buffer pH 6.0, 37 °C, 30 min, mean ± S.D. of n = 2; for α-glucosidase inhibitory activity, fold higher than acertannin (37): relative to acertannin (37)
Method: The α-glucosidase inhibitory activity of all samples was assayed utilizing a commercially available FUJIFILM α-glucosidase inhibitory activity assay kit. In total, 25 μL of each sample (25–2000 μg/mL in H2O ) or acarbose (0.5–8 μg/mL in H2O ), 50 μL of 18.5 mM maltose diluted in maleic anhydride buffer (100 mM, pH = 6.0), and 25 μL of the rat α-glucosidase solution were incubated in a micro-tube at 37 °C for 30 min. Subsequently, 400 μL of purified water was added to the solution and the reaction mixture was boiled for 3 min to deactivate α-glucosidase. The generated glucose was measured by LabAssay™ glucose (mutarotase-GOD method). In total, 100 μL of the reaction solution and 150 μL of the coloring solution were incubated in 96-well plates at 37 °C for 10 min, and the absorbance was recorded at 505 nm using a microplate reader (Bio-Rad, Model 680). The inhibition percentage was calculated using the following Equation: Inhibition percentage (%) = 1−As−Ab/Ac ×100 where As is the absorbance of the analyzed sample, Ab is the absorbance of the blank (immediate deactivation), and Ac is the absorbance of the control ([…]). Acarbose was used as the positive control.

Compound | EC50 ([1]; mean ± S.D. of n = 3) [µM] | Antioxidant Trolox-eq (TE) ([1]; mean ± S.D. of n = 3) | Antioxidant Trolox-eq (TE) ([1]; mean ± S.D. of n = 3, listed as tellimagrandin I) | IC50 (rat α-glucosidase) [µM] | α-glucosidase inhibitory activity relative to gallic acid (rat α-glucosidase; relative to gallic acid) | antioxidant activity (in words) [1] | α-glucosidase inhibitory activity, fold higher than acertannin (37) (rat α-glucosidase) | Antioxidant Trolox-eq (TE) ([1]; mean ± S.D. of n = 3, listed as methyl 3,4-dihydroxybenzoate)
Tellimagrandin I [reference compound] | 6.31 ± 0.27 | 7.04 ± 0.37 | 7.04 | 3.37 ± 0.04 | – | – | – | –
O=C(O[C@H]1[C@H](O)[C@@H](CO)OC[C@@H]1OC(=O)c1cc(O)c(O)c(O)c1)c1cc(O)c(O)c(O)c1 [Compound 35, 1,5-Anhydro-2,3-bis-O-(3′,4′,5′-trihydroxybenzoyl)-D-glucitol] | 11.3 ± 0.98 | 4.29 ± 0.23 | – | 20.5 ± 0.5 | three-times higher | – | – | –
COC(=O)c1ccc(O)cc1 [Methyl 4-hydroxybenzoate, methyl 4-hydroxybenzoate, reference compound] | – | – | – | > 660 | – | did not exhibit any notable activity | – | –
COC(=O)c1cccc(O)c1 [Methyl 3-hydroxybenzoate, methyl 3-hydroxybenzoate, reference compound] | – | – | – | > 660 | – | did not exhibit any notable activity | – | –
O=C(OC[C@H]1OC[C@H](O)[C@@H](OC(=O)c2cc(O)c(O)c(O)c2)[C@@H]1O)c1cc(O)c(O)c(O)c1 [Compound 39, 1,5-Anhydro-3,6-bis-O-(3′,4′,5′-trihydroxybenzoyl)-D-glucitol] | 11.9 ± 0.71 | 3.67 ± 0.19 | – | 55 ± 8.84 | – | – | – | –
2,3,4,6-tetrakis-O-(3′,4′,5′-Trihydroxybenzoyl)-D-glucitol [Compound 54] | 6.61 ± 0.68 | 6.77 ± 0.63 | – | 2.56 ± 0.1 | – | – | more than 13 fold | –
O=C(OC[C@H]1OC[C@H](OC(=O)c2cc(O)c(O)c(O)c2)[C@@H](O)[C@@H]1O)c1cc(O)c(O)c(O)c1 [Compound 37, 1,5-Anhydro-2,6-bis-O-(3′,4′,5′-trihydroxybenzoyl)-D-glucitol] | 15.2 ± 0.53 | 3.32 ± 0.37 | – | 35.6 ± 2.58 | – | – | – | –
O=C(O[C@H]1[C@H](O)[C@@H](CO)OC[C@@H]1O)c1cc(O)c(O)c(O)c1 [Compound 32, 1,5-Anhydro-3-O-(3′,4′,5′-trihydroxybenzoyl)-D-glucitol] | 20.5 ± 2.05 | 2.38 ± 0.24 | – | 138 ± 1.5 | – | – | – | –
O=C(O[C@H]1[C@H](O)[C@@H](OC(=O)c2cc(O)c(O)c(O)c2)CO[C@@H]1CO)c1cc(O)c(O)c(O)c1 [Compound 36, 1,5-Anhydro-2,4-bis-O-(3′,4′,5′-trihydroxybenzoyl)-D-glucitol] | 14.3 ± 0.29 | 3.36 ± 0.13 | – | 48.3 ± 1.25 | – | – | – | –
O=C(OC[C@H]1OC[C@H](O)[C@@H](OC(=O)c2cc(O)c(O)c(O)c2)[C@@H]1OC(=O)c1cc(O)c(O)c(O)c1)c1cc(O)c(O)c(O)c1 [Compound 44, 1,5-Anhydro-3,4,6-tris-O-(3′,4′,5′-trihydroxybenzoyl)-D-glucitol] | 8.48 ± 0.21 | 5.36 ± 0.20 | – | 12.6 ± 0.61 | – | – | – | –
O=C(OC[C@H]1OC[C@H](OC(=O)c2ccc(O)c(O)c2)[C@@H](OC(=O)c2ccc(O)c(O)c2)[C@@H]1OC(=O)c1ccc(O)c(O)c1)c1ccc(O)c(O)c1 [Compound 55, 1,5-Anhydro-2,3,4,6-tetrakis-O-(3′,4′-dihydroxybenzoyl)-D-glucitol] | 6.99 ± 0.11 | 6.54 and 6.54 ± 0.15 | – | 3.28 ± 0.16 | – | – | – | –
O=C(OC[C@H]1OC[C@H](O)[C@@H](O)[C@@H]1O)c1cc(O)c(O)c(O)c1 [Compound 34, 1,5-Anhydro-6-O-(3′,4′,5′-trihydroxybenzoyl)-D-glucitol] | 22.9 ± 1.61 | 2.13 ± 0.12 | – | 127.1 ± 0.88 | – | – | – | –
O=C(O[C@H]1[C@H](O)[C@@H](O)CO[C@@H]1CO)c1cc(O)c(O)c(O)c1 [Compound 33, 1,5-Anhydro-4-O-(3′,4′,5′-trihydroxybenzoyl)-D-glucitol] | 20.8 ± 1.54 | 2.09 ± 0.19 | – | 143.9 ± 0.52 | – | – | – | –
COC(=O)c1cc(O)cc(O)c1 [Methyl 3,5-dihydroxybenzoate, methyl 3,5-dihydroxybenzoate, reference compound] | – | – | – | > 300 | – | did not exhibit any notable activity | – | –
O=C(O[C@H]1[C@H](OC(=O)c2cc(O)c(O)c(O)c2)[C@@H](CO)OC[C@@H]1OC(=O)c1cc(O)c(O)c(O)c1)c1cc(O)c(O)c(O)c1 [Compound 41, 1,5-Anhydro-2,3,4-tris-O-(3′,4′,5′-trihydroxybenzoyl)-D-glucitol] | 7.94 ± 0.39 | 5.59 ± 0.26 | – | 6.72 ± 0.21 | – | – | – | –
O=C(O[C@H]1CO[C@H](CO)[C@@H](O)[C@@H]1O)c1cc(O)c(O)c(O)c1 [Compound 31, 1,5-Anhydro-2-O-(3′,4′,5′-trihydroxybenzoyl)-D-glucitol] | 19.4 ± 1.02 | 2.04 ± 0.08 | – | 95.1 ± 0.22 | – | – | – | –
O=C(O[C@H]1[C@H](OC(=O)c2cc(O)c(O)c(O)c2)[C@@H](CO)OC[C@@H]1O)c1cc(O)c(O)c(O)c1 [Compound 38, 1,5-Anhydro-3,4-bis-O-(3′,4′,5′-trihydroxybenzoyl)-D-glucitol] | 14.8 ± 0.56 | 3.55 ± 0.42 | – | 91.4 ± 6.56 | – | – | – | –
C[C@H]1O[C@H](O[C@H]2[C@H](O)[C@@H](O)[C@@H](O[C@H]3[C@H](O)[C@@H](O)C(O)O[C@@H]3CO)O[C@@H]2CO)[C@H](O)[C@@H](O)[C@@H]1N[C@H]1C=C(CO)[C@@H](O)[C@H](O)[C@H]1O (stereo partly shown) [Acarbose, reference compound] | – | – | – | 0.11 ± 0.02 | – | – | – | –
O=C(OC[C@H]1OC[C@H](O)[C@@H](O)[C@@H]1OC(=O)c1cc(O)c(O)c(O)c1)c1cc(O)c(O)c(O)c1 [Compound 40, 1,5-Anhydro-4,6-bis-O-(3′,4′,5′-trihydroxybenzoyl)-D-glucitol] | 13 ± 1.12 | 3.78 ± 0.33 | – | 26.6 ± 2.37 | – | – | – | –
O=C(OC[C@H]1OC[C@H](OC(=O)c2cc(O)c(O)c(O)c2)[C@@H](OC(=O)c2cc(O)c(O)c(O)c2)[C@@H]1O)c1cc(O)c(O)c(O)c1 [Compound 42, 1,5-Anhydro-2,3,6-tris-O-(3′,4′,5′-trihydroxybenzoyl)-D-glucitol] | 8.09 ± 0.41 | 5.75 ± 0.18 | – | 5.34 ± 0.55 | – | – | – | –
O=C(OC[C@H]1OC[C@H](OC(=O)c2cc(O)c(O)c(O)c2)[C@@H](O)[C@@H]1OC(=O)c1cc(O)c(O)c(O)c1)c1cc(O)c(O)c(O)c1 [Compound 43, 1,5-Anhydro-2,4,6-tris-O-(3′,4′,5′-trihydroxybenzoyl)-D-glucitol] | 10.3 ± 0.76 | 4.31 ± 0.35 | – | 9.34 ± 0.99 | – | – | – | –
O=C(O[C@H]1[C@@H]2OC(=O)c3cc(O)c(O)c(O)c3-c3c(cc(O)c(O)c3O)C(=O)OC[C@H]2OC[C@@H]1OC(=O)c1cc(O)c(O)c(O)c1)c1cc(O)c(O)c(O)c1 [Compound 67, 1,5-Anhydro-2,3-bis-O-(3′,4′,5′-trihydroxybenzoyl)-4,6-O-hexahydroxydiphenyl-D-glucitol] | 6.79 ± 0.21 | 6.44 and 6.44 ± 0.24 | – | 3.22 ± 0.51 | – | – | – | –
O=C(OC[C@H]1OC[C@H](OC(=O)c2cc(O)cc(O)c2)[C@@H](OC(=O)c2cc(O)cc(O)c2)[C@@H]1OC(=O)c1cc(O)cc(O)c1)c1cc(O)cc(O)c1 [Compound 56, 1,5-Anhydro-2,3,4,6-tetrakis-O-(3,5-dihydroxybenzoyl)-D-glucitol] | > 70 | – | – | 9.34 ± 0.02 | – | no antioxidant activity was observed | – | –
O=C(OC[C@H]1OC(O)[C@H](OC(=O)c2cc(O)c(O)c(O)c2)[C@@H](OC(=O)c2cc(O)c(O)c(O)c2)[C@@H]1OC(=O)c1cc(O)c(O)c(O)c1)c1cc(O)c(O)c(O)c1 (stereo partly drawn) [Compound 61, 2,3,4,6-tetrakis-O-(3′,4′,5′-Trihydroxybenzoyl)-α,β-D-glucopyranose] | 5.6 ± 0.28 | 8.33 ± 0.49 | – | 1.68 ± 0.21 | – | – | more than 13 fold | –
COC(=O)c1ccc(O)c(O)c1 [Methyl 3,4-dihydroxybenzoate, methyl 3,4-dihydroxybenzoate, reference compound] | 21.1 ± 1.08 | 2.20 ± 0.05 | – | > 300 | – | – | – | 2.20
Cc1c(C)c2c(c(C)c1O)CCC(C)(C(=O)O)O2 (stereo not shown) [Trolox, reference compound] | 49.4 ± 3.87 | – | – | – | – | – | – | –
